Experimental data from the supplement of paper PMC10883282.

Columns and labels:
Assay in all cases: relative viability vs DMSO control (72 h) (fraction); higher = more viable cells
[1] = test system: G401
Summary of the method: (§1)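 Densities for seeding sarcoma cell lines into 384-well plates were set to give 80–90% confluence. After 24 h, 2.5 µl of serially diluted compound from source plates of 10 mM to 0.0002 mM went in, and plates stayed 72 h at 37 °C in 5% CO2 with 0.1% DMSO vehicle and a 5 µM positive control. Percent growth from ATPLite readings, averaged over up to triplicate wells, served as relative viability, rescaled so 1 means full and 0 means none.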

[2] = test system: HT1080
Summary of the method: as §1

[3] = test system: KHOS-NP
Summary of the method: as §1

[4] = test system: MES-SA
Summary of the method: as §1

[5] = test system: RD-ES
Summary of the method: as §1

[6] = test system: RD
Summary of the method: as §1

[7] = test system: SK-ES-1
Summary of the method: as §1

[8] = test system: SK-LMS-1
Summary of the method: as §1

[9] = test system: SW1353
Summary of the method: as §1

[10] = test system: SW684
Summary of the method: as §1

[11] = test system: SW872
Summary of the method: as §1

[12] = test system: VA-ES-BJ
Summary of the method: as §1

N#CCC1(n2cc(-c3ncnc4[nH]ccc34)cn2)CN(C2CCN(C(=O)c3ccnc(C(F)(F)F)c3F)CC2)C1 [Itacitinib]
Conditions	relative viability
[1], 0.00017 µM	0.99
[1], 0.00051 µM	0.967
[1], 0.00152 µM	0.921
[1], 0.00457 µM	0.912
[1], 0.01372 µM	0.962
[1], 0.04115 µM	0.929
[1], 0.1235 µM	0.902
[1], 0.3704 µM	0.953
[1], 1.111 µM	0.931
[1], 3.333 µM	0.913
[1], 10 µM	0.862
[2], 0.00017 µM	1.04
[2], 0.00051 µM	1.02
[2], 0.00152 µM	1.04
[2], 0.00457 µM	1.01
[2], 0.01372 µM	1.03
[2], 0.04115 µM	0.991
[2], 0.1235 µM	1.03
[2], 0.3704 µM	1.004
[2], 1.111 µM	0.993
[2], 3.333 µM	1.02
[2], 10 µM	1
[3], 0.00017 µM	1.087
[3], 0.00051 µM	1.11
[3], 0.00152 µM	1.09
[3], 0.00457 µM	1.07
[3], 0.01372 µM	1.06
[3], 0.04115 µM	1.048
[3], 0.1235 µM	1.035
[3], 0.3704 µM	1.01
[3], 1.111 µM	0.991
[3], 3.333 µM	0.942
[3], 10 µM	0.914
[4], 0.00017 µM	0.921
[4], 0.00051 µM	0.934
[4], 0.00152 µM	0.919
[4], 0.00457 µM	0.908
[4], 0.01372 µM	0.922
[4], 0.04115 µM	0.894
[4], 0.1235 µM	0.909
[4], 0.3704 µM	0.886
[4], 1.111 µM	0.898
[4], 3.333 µM	0.864
[4], 10 µM	0.827
[5], 0.00017 µM	0.92
[5], 0.00051 µM	0.949
[5], 0.00152 µM	0.919
[5], 0.00457 µM	0.956
[5], 0.01372 µM	0.927
[5], 0.04115 µM	0.913
[5], 0.1235 µM	0.909
[5], 0.3704 µM	0.909
[5], 1.111 µM	0.924
[5], 3.333 µM	0.887
[5], 10 µM	0.853
[6], 0.00017 µM	1.01
[6], 0.00051 µM	1.02
[6], 0.00152 µM	1.02
[6], 0.00457 µM	1.07
[6], 0.01372 µM	1.08
[6], 0.04115 µM	1.05
[6], 0.1235 µM	1.05
[6], 0.3704 µM	1.03
[6], 1.111 µM	1.04
[6], 3.333 µM	1.04
[6], 10 µM	1.06
[7], 0.00017 µM	1.04
[7], 0.00051 µM	0.996
[7], 0.00152 µM	0.977
[7], 0.00457 µM	1.05
[7], 0.01372 µM	0.979
[7], 0.04115 µM	0.976
[7], 0.1235 µM	1.01
[7], 0.3704 µM	0.964
[7], 1.111 µM	0.972
[7], 3.333 µM	0.884
[7], 10 µM	0.855
[8], 0.00017 µM	1.03
[8], 0.00051 µM	1.02
[8], 0.00152 µM	0.994
[8], 0.00457 µM	0.976
[8], 0.01372 µM	0.987
[8], 0.04115 µM	0.997
[8], 0.1235 µM	0.958
[8], 0.3704 µM	0.954
[8], 1.111 µM	0.969
[8], 3.333 µM	0.913
[8], 10 µM	0.883
[9], 0.00017 µM	0.987
[9], 0.00051 µM	1
[9], 0.00152 µM	0.982
[9], 0.00457 µM	0.937
[9], 0.01372 µM	0.96
[9], 0.04115 µM	0.939
[9], 0.1235 µM	0.955
[9], 0.3704 µM	0.937
[9], 1.111 µM	0.933
[9], 3.333 µM	0.929
[9], 10 µM	0.87
[10], 0.00017 µM	1.1
[10], 0.00051 µM	1.09
[10], 0.00152 µM	1.09
[10], 0.00457 µM	1.1
[10], 0.01372 µM	1.07
[10], 0.04115 µM	1.07
[10], 0.1235 µM	1.06
[10], 0.3704 µM	1.08
[10], 1.111 µM	1.1
[10], 3.333 µM	1.06
[10], 10 µM	0.977
[11], 0.00017 µM	1.012
[11], 0.00051 µM	1.03
[11], 0.00152 µM	0.975
[11], 0.00457 µM	0.972
[11], 0.01372 µM	0.971
[11], 0.04115 µM	0.94
[11], 0.1235 µM	0.891
[11], 0.3704 µM	0.911
[11], 1.111 µM	0.901
[11], 3.333 µM	0.902
[11], 10 µM	0.859
[12], 0.00017 µM	1.05
[12], 0.00051 µM	1.03
[12], 0.00152 µM	1.02
[12], 0.00457 µM	1.02
[12], 0.01372 µM	1.01
[12], 0.04115 µM	1
[12], 0.1235 µM	0.982
[12], 0.3704 µM	0.97
[12], 1.111 µM	0.972
[12], 3.333 µM	0.942
[12], 10 µM	0.859

N#Cc1ccnc(N2C(=O)CC[C@H]2C(=O)N(c2cncc(F)c2)[C@H](C(=O)NC2CC(F)(F)C2)c2ccccc2Cl)c1 [Ivosidenib]
Conditions	relative viability
[1], 0.00017 µM	0.926
[1], 0.00051 µM	0.927
[1], 0.00152 µM	0.971
[1], 0.00457 µM	1.01
[1], 0.01372 µM	0.952
[1], 0.04115 µM	0.934
[1], 0.1235 µM	0.99
[1], 0.3704 µM	0.943
[1], 1.111 µM	0.958
[1], 3.333 µM	0.929
[1], 10 µM	0.896
[2], 0.00017 µM	0.987
[2], 0.00051 µM	1.07
[2], 0.00152 µM	1.03
[2], 0.00457 µM	1.0513
[2], 0.01372 µM	1.09
[2], 0.04115 µM	1.07
[2], 0.1235 µM	1.11
[2], 0.3704 µM	1.106
[2], 1.111 µM	1.1
[2], 3.333 µM	1.09
[2], 10 µM	1.05
[3], 0.00017 µM	1.05
[3], 0.00051 µM	1.05
[3], 0.00152 µM	1.07
[3], 0.00457 µM	1.07
[3], 0.01372 µM	1.05
[3], 0.04115 µM	1.05
[3], 0.1235 µM	1.06
[3], 0.3704 µM	1.03
[3], 1.111 µM	1.05
[3], 3.333 µM	1.05
[3], 10 µM	1.06
[4], 0.00017 µM	0.905
[4], 0.00051 µM	0.943
[4], 0.00152 µM	0.932
[4], 0.00457 µM	0.935
[4], 0.01372 µM	0.938
[4], 0.04115 µM	0.929
[4], 0.1235 µM	0.933
[4], 0.3704 µM	0.981
[4], 1.111 µM	0.976
[4], 3.333 µM	0.925
[4], 10 µM	0.8939
[5], 0.00017 µM	0.948
[5], 0.00051 µM	0.976
[5], 0.00152 µM	1
[5], 0.00457 µM	0.977
[5], 0.01372 µM	0.996
[5], 0.04115 µM	0.986
[5], 0.1235 µM	1
[5], 0.3704 µM	1.02
[5], 1.111 µM	0.986
[5], 3.333 µM	0.973
[5], 10 µM	0.9403
[6], 0.00017 µM	1.04
[6], 0.00051 µM	1.02
[6], 0.00152 µM	1.03
[6], 0.00457 µM	1.05
[6], 0.01372 µM	1.05
[6], 0.04115 µM	1.06
[6], 0.1235 µM	1.07
[6], 0.3704 µM	1.03
[6], 1.111 µM	1.04
[6], 3.333 µM	1.02
[6], 10 µM	0.944
[7], 0.00017 µM	0.941
[7], 0.00051 µM	0.962
[7], 0.00152 µM	0.984
[7], 0.00457 µM	1.02
[7], 0.01372 µM	0.988
[7], 0.04115 µM	1.01
[7], 0.1235 µM	1
[7], 0.3704 µM	0.965
[7], 1.111 µM	1
[7], 3.333 µM	0.978
[7], 10 µM	0.983
[8], 0.00017 µM	1.01
[8], 0.00051 µM	1.01
[8], 0.00152 µM	1.033
[8], 0.00457 µM	1.04
[8], 0.01372 µM	1.04
[8], 0.04115 µM	1.02
[8], 0.1235 µM	1.03
[8], 0.3704 µM	0.968
[8], 1.111 µM	0.997
[8], 3.333 µM	0.968
[8], 10 µM	0.954
[9], 0.00017 µM	0.966
[9], 0.00051 µM	0.94
[9], 0.00152 µM	0.976
[9], 0.00457 µM	0.935
[9], 0.01372 µM	0.976
[9], 0.04115 µM	0.972
[9], 0.1235 µM	0.949
[9], 0.3704 µM	0.98
[9], 1.111 µM	0.929
[9], 3.333 µM	0.973
[9], 10 µM	0.972
[10], 0.00017 µM	1.056
[10], 0.00051 µM	1.07
[10], 0.00152 µM	1.08
[10], 0.00457 µM	1.11
[10], 0.01372 µM	1.13
[10], 0.04115 µM	1.06
[10], 0.1235 µM	1.11
[10], 0.3704 µM	1.1
[10], 1.111 µM	1.1
[10], 3.333 µM	1.1
[10], 10 µM	1
[11], 0.00017 µM	1.03
[11], 0.00051 µM	1.04
[11], 0.00152 µM	1.04
[11], 0.00457 µM	1.052
[11], 0.01372 µM	1.06
[11], 0.04115 µM	1.03
[11], 0.1235 µM	1.03
[11], 0.3704 µM	1.04
[11], 1.111 µM	1.05
[11], 3.333 µM	1.047
[11], 10 µM	1.04
[12], 0.00017 µM	1.03
[12], 0.00051 µM	1.02
[12], 0.00152 µM	1
[12], 0.00457 µM	1.03
[12], 0.01372 µM	1.04
[12], 0.04115 µM	1.02
[12], 0.1235 µM	1.043
[12], 0.3704 µM	1.003
[12], 1.111 µM	1.01
[12], 3.333 µM	1.03
[12], 10 µM	0.988
